Laboratory results as given in patent US20040162221A1, “Pyrazole derivatives and herbicides containing the same” (IDEMITSU KOSAN CO., LTD., priority 1998, published 2004).

What was measured:
[1] = test system: green foxtail; experiment: Upland post-emergence treatment test, green foxtail; format: in vivo, green foxtail (Setaria viridis); conditions: post-emergence spray at 3-4 leaf stage, 80 g/ha, 30th day after treatment, greenhouse
Excerpt: (§1) 97 Parts by weight of talc (trade name: Zeaklite, supplied by Zeaklite Industry) as a carrier, 1.5 parts by weight of alkylarylsulfonic acid salt (trade name: Neoplex, supplied by Kao-Atlas K.K.) as a surfactant and 1.5 parts by weight of a nonionic and anionic surfactant (trade names Sorpol 800A, supplied by Toho Chemical Co., Ltd.) were uniformly pulverized and mixed to prepare a carrier for a wettable powder.
(§2) 90 Parts by weight of the above carrier for a wettable powder and 10 parts by weight of one of the compounds of the present invention were uniformly pulverized and mixed to obtain herbicides. Further, in Comparative Herbicide Examples, comparative herbicides were also prepared from the following compounds (A) and (B) in the same manner.
(§3) Herbicidal efficacy and phytotoxicity to crops were determined on the basis of the ratio of remaining plant weight to plant weight in non-treated plot=(remaining plant weight in treated plot/plant weight in non-treated-plot)×100. The ratings were applied to the following biological tests.
(§4) Seeds of weeds velvetleaf, redroot pigweed, common ragweed, green foxtail and large crabgrass and seeds of corn were sown in 1/5,000-are Wagner pots filled with upland soil, and covered with upland soil. The seeds were grown in a greenhouse, and at the stage of 3˜4 leaves of these plants, a predetermined amount of the herbicide prepared in the above (1) was suspended in water, and the suspension was uniformly sprayed onto leaf and stalk portions at a rate of 2,000 liters/hectare. Then, the plants were grown in the greenhouse, and on the 30th day after the treatment, the herbicide was evaluated for herbicidal efficacy and phytotoxicity to the corn on the basis of the ratings shown in (2).

[2] = test system: common lambsquaters; experiment: Upland pre-emergence treatment test, common lambsquaters; format: in vivo, common lambsquaters (Chenopodium album); conditions: pre-emergence soil surface spray, 80 g/ha, 20th day after treatment, greenhouse
Excerpt: as §1, §2, §3
(§5) Seeds of weeds such as velvetleaf, common lambsquaters, redroot pigweed, common ragweed, green foxtail and large crabgrass and seeds of corn were sown in 1/5,000-are Wagner pots filled with upland soil, and covered with upland soil. Then, a predetermined amount of the herbicide prepared in the above (1) was suspended in water, and the suspension was uniformly sprayed onto the soil surface at a rate of 2,000 liters/hectare. Then, the seeds were grown in a greenhouse, and on the 20th day after the treatment, the herbicide was evaluated for herbicidal efficacy and phytotoxicity to corn on the basis of the ratings shown in (2).

[3] = test system: corn; experiment: Upland post-emergence treatment test, phytotoxicity to corn; format: in vivo; conditions: post-emergence spray at 3-4 leaf stage, 80 g/ha, 30th day after treatment, greenhouse
Excerpt: as §1, §2, §3, §4

[4] = test system: corn; experiment: Upland pre-emergence treatment test, phytotoxicity to corn; format: in vivo; conditions: pre-emergence soil surface spray, 80 g/ha, 20th day after treatment, greenhouse
Excerpt: as §1, §2, §3, §5

[5] = test system: common ragweed; experiment: Upland post-emergence treatment test, common ragweed; format: in vivo, common ragweed (Ambrosia artemisilfolia); conditions: post-emergence spray at 3-4 leaf stage, 80 g/ha, 30th day after treatment, greenhouse
Excerpt: as §1, §2, §3, §4

[6] = test system: common ragweed; experiment: Upland pre-emergence treatment test, common ragweed; format: in vivo, common ragweed (Ambrosia artemisilfolia); conditions: pre-emergence soil surface spray, 80 g/ha, 20th day after treatment, greenhouse
Excerpt: as §1, §2, §3, §5

[7] = test system: velvetleaf; experiment: Upland pre-emergence treatment test, velvetleaf; format: in vivo, velvetleaf (Abutilon theophrasti); conditions: pre-emergence soil surface spray, 80 g/ha, 20th day after treatment, greenhouse
Excerpt: as §1, §2, §3, §5

[8] = test system: large crabgrass; experiment: Upland pre-emergence treatment test, large crabgrass; format: in vivo; conditions: pre-emergence soil surface spray, 80 g/ha, 20th day after treatment, greenhouse
Excerpt: as §1, §2, §3, §5

[9] = test system: redroot pigweed; experiment: Upland pre-emergence treatment test, redroot pigweed; format: in vivo, redroot pigweed (Amaranthus retroflexus); conditions: pre-emergence soil surface spray, 80 g/ha, 20th day after treatment, greenhouse
Excerpt: as §1, §2, §3, §5

[10] = test system: green foxtail; experiment: Upland pre-emergence treatment test, green foxtail; format: in vivo, green foxtail (Setaria viridis); conditions: pre-emergence soil surface spray, 80 g/ha, 20th day after treatment, greenhouse
Excerpt: as §1, §2, §3, §5

[11] = test system: velvetleaf; experiment: Upland post-emergence treatment test, velvetleaf; format: in vivo, velvetleaf (Abutilon theophrasti); conditions: post-emergence spray at 3-4 leaf stage, 80 g/ha, 30th day after treatment, greenhouse
Excerpt: as §1, §2, §3, §4

[12] = test system: large crabgrass; experiment: Upland post-emergence treatment test, large crabgrass; format: in vivo; conditions: post-emergence spray at 3-4 leaf stage, 80 g/ha, 30th day after treatment, greenhouse
Excerpt: as §1, §2, §3, §4

[13] = test system: redroot pigweed; experiment: Upland post-emergence treatment test, redroot pigweed; format: in vivo, redroot pigweed (Amaranthus retroflexus); conditions: post-emergence spray at 3-4 leaf stage, 80 g/ha, 30th day after treatment, greenhouse
Excerpt: as §1, §2, §3, §4
Further: ranges in brackets are in %.

SMILES: Cc1c(C(=O)c2cnn(C)c2O)ccc2c1C(C)(C)CS2(=O)=O [Compound 1, 5-(1′-methyl-5′-hydroxypyrazol-4′-yl)carbonyl-3,3,4-trimethyl-2,3-dihydrobenzothiophene-1,1-dioxide]
- Herbicidal Efficacy EE = Green foxtail [1]: 5 (0)
- Herbicidal Efficacy BB = Common lambsquaters [2]: 5 (0)
- Phytotoxicity Corn [3]: − (100)
- Phytotoxicity Corn [4]: − (100)
- Herbicidal Efficacy DD = Common ragweed [5]: 5 (0)
- Herbicidal Efficacy DD = Common ragweed [6]: 5 (0)
- Herbicidal Efficacy AA = Velvetleaf [7]: 5 (0)
- Herbicidal Efficacy FF = Large crabgrass [8]: 5 (0)
- Herbicidal Efficacy CC = Rough Pigweed [9]: 5 (0)
- Herbicidal Efficacy EE = Green foxtail [10]: 5 (0)
- Herbicidal Efficacy AA = Velvetleaf [11]: 5 (0)
- Herbicidal Efficacy FF = Large crabgrass [12]: 5 (0)
- Herbicidal Efficacy CC = Redroot Pigweed [13]: 5 (0)

SMILES: Cc1c(C(=O)c2cnn(C)c2OS(C)(=O)=O)ccc2c1C(C)(C)CS2(=O)=O [Compound 2]
- Herbicidal Efficacy EE = Green foxtail [1]: 5 (0)
- Herbicidal Efficacy BB = Common lambsquaters [2]: 5 (0)
- Phytotoxicity Corn [3]: − (100)
- Phytotoxicity Corn [4]: − (100)
- Herbicidal Efficacy DD = Common ragweed [5]: 5 (0)
- Herbicidal Efficacy DD = Common ragweed [6]: 5 (0)
- Herbicidal Efficacy AA = Velvetleaf [7]: 5 (0)
- Herbicidal Efficacy FF = Large crabgrass [8]: 5 (0)
- Herbicidal Efficacy CC = Rough Pigweed [9]: 5 (0)
- Herbicidal Efficacy EE = Green foxtail [10]: 5 (0)
- Herbicidal Efficacy AA = Velvetleaf [11]: 5 (0)
- Herbicidal Efficacy FF = Large crabgrass [12]: 5 (0)
- Herbicidal Efficacy CC = Redroot Pigweed [13]: 5 (0)

SMILES: CCS(=O)(=O)Oc1c(C(=O)c2ccc3c(c2C)C(C)(C)CS3(=O)=O)cnn1C [Compound 3]
- Herbicidal Efficacy EE = Green foxtail [1]: 5 (0)
- Herbicidal Efficacy BB = Common lambsquaters [2]: 5 (0)
- Herbicidal Efficacy DD = Common ragweed [5]: 5 (0)
- Herbicidal Efficacy DD = Common ragweed [6]: 5 (0)
- Herbicidal Efficacy AA = Velvetleaf [7]: 5 (0)
- Herbicidal Efficacy FF = Large crabgrass [8]: 5 (0)
- Herbicidal Efficacy CC = Rough Pigweed [9]: 5 (0)
- Herbicidal Efficacy EE = Green foxtail [10]: 5 (0)
- Herbicidal Efficacy AA = Velvetleaf [11]: 5 (0)
- Herbicidal Efficacy FF = Large crabgrass [12]: 5 (0)
- Herbicidal Efficacy CC = Redroot Pigweed [13]: 5 (0)

SMILES: CCCS(=O)(=O)Oc1c(C(=O)c2ccc3c(c2C)C(C)(C)CS3(=O)=O)cnn1C [Compound 4, 5-(1′-methyl-5′-n-propanesulfonyloxypyrazol-4′-yl)carbonyl-3,3,4-trimethyl-2,3-dihydrobenzothiophene-1,1-dioxide]
- Herbicidal Efficacy EE = Green foxtail [1]: 5 (0)
- Herbicidal Efficacy BB = Common lambsquaters [2]: 5 (0)
- Phytotoxicity Corn [3]: − (100)
- Phytotoxicity Corn [4]: − (100)
- Herbicidal Efficacy DD = Common ragweed [5]: 5 (0)
- Herbicidal Efficacy DD = Common ragweed [6]: 5 (0)
- Herbicidal Efficacy AA = Velvetleaf [7]: 5 (0)
- Herbicidal Efficacy FF = Large crabgrass [8]: 5 (0)
- Herbicidal Efficacy CC = Rough Pigweed [9]: 5 (0)
- Herbicidal Efficacy EE = Green foxtail [10]: 5 (0)
- Herbicidal Efficacy AA = Velvetleaf [11]: 5 (0)
- Herbicidal Efficacy FF = Large crabgrass [12]: 5 (0)
- Herbicidal Efficacy CC = Redroot Pigweed [13]: 5 (0)

SMILES: Cc1ccc(S(=O)(=O)Oc2c(C(=O)c3ccc4c(c3C)C(C)(C)CS4(=O)=O)cnn2C)cc1 [Compound 18]
- Herbicidal Efficacy EE = Green foxtail [1]: 5 (0)
- Herbicidal Efficacy BB = Common lambsquaters [2]: 5 (0)
- Phytotoxicity Corn [3]: − (100)
- Phytotoxicity Corn [4]: − (100)
- Herbicidal Efficacy DD = Common ragweed [5]: 5 (0)
- Herbicidal Efficacy DD = Common ragweed [6]: 4 (1-20)
- Herbicidal Efficacy AA = Velvetleaf [7]: 5 (0)
- Herbicidal Efficacy FF = Large crabgrass [8]: 5 (0)
- Herbicidal Efficacy CC = Rough Pigweed [9]: 5 (0)
- Herbicidal Efficacy EE = Green foxtail [10]: 5 (0)
- Herbicidal Efficacy AA = Velvetleaf [11]: 5 (0)
- Herbicidal Efficacy FF = Large crabgrass [12]: 5 (0)
- Herbicidal Efficacy CC = Redroot Pigweed [13]: 5 (0)
